Results published in ChEMBL document CHEMBL1122976, “Potential inhibitors of S-adenosylmethionine-dependent methyltransferases. 10. Base- and amino acid modified analogues of S-aristeromycinyl-L-homocysteine” (J Med Chem, 1985).

Tests used:
[1] = biological target: T1, Phenylethanolamine N-methyltransferase (Bos taurus, UniProt P10938); test: Inhibition constant was evaluated against PNMT
T1 sequence (P10938 whole entry): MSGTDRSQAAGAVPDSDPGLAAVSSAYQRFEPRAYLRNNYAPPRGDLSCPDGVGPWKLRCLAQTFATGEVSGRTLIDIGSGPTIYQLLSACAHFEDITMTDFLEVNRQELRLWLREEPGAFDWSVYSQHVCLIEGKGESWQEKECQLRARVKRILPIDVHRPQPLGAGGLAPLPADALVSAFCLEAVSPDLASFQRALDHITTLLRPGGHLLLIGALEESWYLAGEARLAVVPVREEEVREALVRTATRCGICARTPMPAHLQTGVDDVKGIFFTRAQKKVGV

[2] = biological target: T2, Catechol O-methyltransferase (Rattus norvegicus) (UniProt P22734); test: Inhibition of Catechol O-methyltransferase at 2.0 mM
T2 sequence (whole entry): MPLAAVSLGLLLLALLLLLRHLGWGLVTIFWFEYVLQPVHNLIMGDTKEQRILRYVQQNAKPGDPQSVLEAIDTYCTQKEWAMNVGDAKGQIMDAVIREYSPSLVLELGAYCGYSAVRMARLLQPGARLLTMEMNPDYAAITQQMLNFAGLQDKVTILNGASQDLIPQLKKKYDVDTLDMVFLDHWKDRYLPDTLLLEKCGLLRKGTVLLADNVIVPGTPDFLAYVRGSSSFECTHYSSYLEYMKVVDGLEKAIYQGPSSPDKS

[3] = biological target: T2, Catechol O-methyltransferase (Rattus norvegicus); test: Inhibition of Catechol O-methyltransferase at 0.2 mM
[4] = biological target: T3, Phenylethanolamine N-methyltransferase (Bos taurus) (UniProt P10938); test: Inhibition of PNMT at 2.0 mM
T3 sequence (whole entry): T1 sequence (P10938 whole entry)

[5] = biological target: T3, Phenylethanolamine N-methyltransferase (Bos taurus); test: Inhibition of PNMT at 0.2 mM
[6] = biological target: Histamine N-methyltransferase (Cavia porcellus) (UniProt Q9EST2); test: Inhibition of Histamine N-methyl-transferase at 0.2 mM
[7] = biological target: Histamine N-methyltransferase (Cavia porcellus) (UniProt Q9EST2); test: Inhibition of Histamine N-methyl-transferase at 2.0 mM

Sequence of Histamine N-methyltransferase (Cavia porcellus) (Q9EST2 whole entry): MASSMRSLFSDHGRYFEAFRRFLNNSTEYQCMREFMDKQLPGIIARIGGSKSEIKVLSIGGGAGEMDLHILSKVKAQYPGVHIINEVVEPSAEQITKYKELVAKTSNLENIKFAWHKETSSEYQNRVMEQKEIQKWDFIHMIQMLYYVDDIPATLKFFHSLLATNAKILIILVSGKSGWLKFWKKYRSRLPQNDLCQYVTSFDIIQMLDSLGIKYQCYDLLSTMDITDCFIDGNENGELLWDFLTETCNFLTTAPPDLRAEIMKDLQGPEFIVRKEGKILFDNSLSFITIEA

| Ki [1] [µM] | inhibition [2] [%] | inhibition [3] [%] | inhibition [4] [%] | inhibition [5] [%] | inhibition [6] [%] | inhibition [7] [%] | SMILES |
| --- | --- | --- | --- | --- | --- | --- | --- |
| 29 | – | – | – | – | – | – | Nc1ncnc2c1ncn2[C@@H]1O[C@H](CSCC[C@H](N)C(=O)O)[C@@H](O)[C@H]1O (stereo in doubt; 5) [S-ADENOSYLHOMOCYSTEINE] |
| – | 42 | 14 | 22 | 10 | 0 | 9 | Nc1ncnc2c1ncn2[C@@H]1O[C@H](C[S+]([O-])CCC(N)C(=O)O)[C@@H](O)[C@H]1O (some centres undefined) |
| – | 55 | 15 | 42 | 11 | 11 | 28 | CNc1ncnc2c1ncn2C1O[C@H](CSCCC(N)C(=O)O)[C@@H](O)[C@H]1O (some centres undefined) |
| 62.3 | – | – | – | – | – | – | Nc1ncnc2c1ncn2[C@@H]1O[C@H](CSCC[C@H](N)C(=O)O)[C@@H](O)[C@H]1O (stereo in doubt; 9) [S-ADENOSYLHOMOCYSTEINE] |
